Results from the supplement of paper PMC10307832.

Each cell line was assayed with Cc1ccc(C(=O)Nc2ccc(CN3CCN(C)CC3)c(C(F)(F)F)c2)cc1C#Cc1cnc2cccnn12 [Ponatinib] + N=C(N)NC(=N)NCCc1ccccc1 [Phenformin] (partner 250 µM) (assay: relative viability (nuclei count vs DMSO), 5 days (fraction); higher = more cells survive). Conditions: first compound 0.002 µM.
In short: (§1)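 Cells from lung cancer lines were seeded into 1536-well plates and, one day later, dosed by pin tool. Treatments were either a single drug or a fixed dose of an anchor drug with five library-drug doses (not always all listed) in √10 steps. After 5 days, nuclei were stained in a one-step fixation (final 0.05% Triton X-100, 1% formaldehyde, 1 ug/ml Hoechst) and counted on 4× images, and relative viability is the treated-to-vehicle nuclei ratio, as the median of duplicate plates.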

Row | Cell Line | relative viability
1 | ChaGo-K-1 | 0.423
2 | NCI-H358 | 0.375
3 | NCI-H3122 | 0.301
4 | HOP-62 | 0.602
5 | HCC-44 | 0.22
6 | A549 | 0.161
7 | NCI-H522 | 0.697
8 | LU99A | 0.823
9 | BEN | 0.253
10 | HARA | 0.446
11 | SW 900 | 0.491
12 | HCC-78 | 0.601
13 | NCI-H441 | 0.818
14 | LCLC-97TM1 | 0.489
15 | NCI-H2009 | 0.426
16 | A-427 | 0.34
17 | NCI-H1563 | 0.587

Same assay, conditions: first compound 0.006325 µM

Row | Cell Line | relative viability
18 | NCI-H2342 | 0.488
19 | NCI-H1623 | 0.606
20 | NCI-H838 | 0.715
21 | NCI-H1650 | 0.521
22 | NCI-H1993 | 0.512
23 | NCI-H2347 | 0.393
24 | PC-14 | 0.619
25 | LCLC-103H | 0.347
26 | NCI-H596 | 0.82
27 | NCI-H2126 | 0.544
28 | EMC-BAC-2 | 0.449
29 | NCI-H2085 | 0.708
30 | HCC-366 | 0.587
31 | NCI-H1666 | 0.538
32 | NCI-H647 | 0.626
33 | LK-2 | 0.52
34 | NCI-H2087 | 0.471
35 | NCI-H1395 | 0.432
36 | H3255 | 0.366
37 | COR-L23 | 0.453

Row | Cell Line | relative viability
38 | COR-L 105 | 0.479
39 | LOU-NH91 | 0.73
40 | ChaGo-K-1 | 0.447
41 | NCI-H358 | 0.46
42 | NCI-H3122 | 0.378
43 | HOP-62 | 0.635
44 | HCC-44 | 0.225
45 | A549 | 0.142
46 | NCI-H522 | 0.657
47 | LU99A | 0.873
48 | BEN | 0.288
49 | HARA | 0.437
50 | SW 900 | 0.496
51 | HCC-78 | 0.614
52 | NCI-H441 | 0.866
53 | LCLC-97TM1 | 0.432
54 | NCI-H2009 | 0.432
55 | A-427 | 0.398
56 | NCI-H1563 | 0.649

Same assay, conditions: first compound 0.06325 µM

Row | Cell Line | relative viability
57 | NCI-H2342 | 0.538
58 | NCI-H1623 | 0.611
59 | NCI-H838 | 0.527
60 | NCI-H1650 | 0.389
61 | NCI-H1993 | 0.532
62 | NCI-H2347 | 0.38
63 | PC-14 | 0.665
64 | LCLC-103H | 0.312
65 | NCI-H596 | 0.7
66 | NCI-H2126 | 0.558
67 | EMC-BAC-2 | 0.508
68 | NCI-H2085 | 0.682
69 | HCC-366 | 0.622
70 | NCI-H1666 | 0.564
71 | NCI-H647 | 0.699
72 | LK-2 | 0.239
73 | NCI-H2087 | 0.493
74 | NCI-H1395 | 0.386
75 | H3255 | 0.393
76 | COR-L23 | 0.419

Row | Cell Line | relative viability
77 | COR-L 105 | 0.501
78 | LOU-NH91 | 0.766
79 | ChaGo-K-1 | 0.477
80 | NCI-H358 | 0.4
81 | NCI-H3122 | 0.384
82 | HOP-62 | 0.633
83 | HCC-44 | 0.207
84 | A549 | 0.142
85 | NCI-H522 | 0.653
86 | LU99A | 0.744
87 | BEN | 0.253
88 | HARA | 0.44
89 | SW 900 | 0.682
90 | HCC-78 | 0.673
91 | NCI-H441 | 0.941
92 | LCLC-97TM1 | 0.467
93 | NCI-H2009 | 0.522
94 | A-427 | 0.244
95 | NCI-H1563 | 0.655

Same assay, conditions: first compound 0.2 µM

Row | Cell Line | relative viability
96 | NCI-H2342 | 0.595
97 | NCI-H1623 | 0.627
98 | NCI-H838 | 0.442
99 | NCI-H1650 | 0.37
100 | NCI-H1993 | 0.508
101 | NCI-H2347 | 0.34
102 | PC-14 | 0.605
103 | LCLC-103H | 0.295
104 | NCI-H596 | 0.568
105 | NCI-H2126 | 0.543
106 | EMC-BAC-2 | 0.487
107 | NCI-H2085 | 0.641
108 | HCC-366 | 0.515
109 | NCI-H1666 | 0.585
110 | NCI-H647 | 0.42
111 | LK-2 | 0.21
112 | NCI-H2087 | 0.439
113 | NCI-H1395 | 0.377
114 | H3255 | 0.329
115 | COR-L23 | 0.436

Row | Cell Line | relative viability
116 | COR-L 105 | 0.466
117 | LOU-NH91 | 0.676
118 | ChaGo-K-1 | 0.466
119 | NCI-H358 | 0.299
120 | NCI-H3122 | 0.356
121 | HOP-62 | 0.624
122 | HCC-44 | 0.151
123 | A549 | 0.147
124 | NCI-H522 | 0.56
125 | LU99A | 0.859
126 | BEN | 0.264
127 | HARA | 0.388
128 | SW 900 | 0.416
129 | HCC-78 | 0.669
130 | NCI-H441 | 0.697
131 | LCLC-97TM1 | 0.411
132 | NCI-H2009 | 0.467
133 | A-427 | 0.225
134 | NCI-H1563 | 0.525

What follows are cell lines tested with Cc1ccc(Nc2nccc(N(C)c3ccc4c(C)n(C)nc4c3)n2)cc1S(N)(=O)=O [Pazopanib] + N=C(N)NC(=N)NCCc1ccccc1 [Phenformin] (partner 250 µM) in the same assay as above. Conditions: first compound 0.01 µM.
In short: as §1

Row | Cell Line | relative viability
135 | NCI-H2342 | 0.501
136 | NCI-H1623 | 0.584
137 | NCI-H838 | 0.548
138 | NCI-H1650 | 0.405
139 | NCI-H2347 | 0.218
140 | PC-14 | 0.747
141 | LCLC-103H | 0.247
142 | NCI-H2126 | 0.489
143 | NCI-H2085 | 0.624
144 | HCC-366 | 0.566
145 | NCI-H1666 | 0.576
146 | NCI-H647 | 0.483
147 | NCI-H2087 | 0.373
148 | NCI-H1395 | 0.384
149 | H3255 | 0.298
150 | COR-L23 | 0.44
151 | COR-L 105 | 0.446
152 | LOU-NH91 | 0.635
153 | ChaGo-K-1 | 0.474
154 | NCI-H358 | 0.388
155 | NCI-H3122 | 0.417
156 | HOP-62 | 0.654
157 | HCC-44 | 0.216
158 | NCI-H522 | 0.532
159 | LU99A | 0.725
160 | HARA | 0.43
161 | SW 900 | 0.532
